How the values were obtained:
[1] = test system: barnyardgrass; assay: Test A pre-/postemergence herbicide test; format: in vivo, Echinochloa crus-galli
Procedure, shortened: (§1)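 Formulated compound (non-phytotoxic solvent, surfactant) sprayed pre- onto soil of seeded loam/sand pots or post- onto seedlings at 1–2 leaves; ~10 d greenhouse; 0–100 visual control rating versus untreated.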

[2] = test system: kochia; assay: Test A pre-/postemergence herbicide test; format: in vivo, Kochia scoparia
Procedure, shortened: as §1

[3] = test system: ragweed; assay: Test A pre-/postemergence herbicide test; format: in vivo, Ambrosia elatior
Procedure, shortened: as §1

[4] = test system: ryegrass, Italian; assay: Test A pre-/postemergence herbicide test; format: in vivo, Lolium multiflorum
Procedure, shortened: as §1

[5] = test system: giant foxtail; assay: Test A pre-/postemergence herbicide test; format: in vivo, Setaria faberii
Procedure, shortened: as §1

[6] = test system: pigweed; assay: Test A pre-/postemergence herbicide test; format: in vivo, Amaranthus retroflexus
Procedure, shortened: as §1

[7] = test system: wheat; assay: Test A pre-/postemergence herbicide test; format: in vivo, Triticum aestivum; settings: Postemergence
Procedure, shortened: as §1

[8] = test system: corn; assay: Test A pre-/postemergence herbicide test; format: in vivo, Zea mays; settings: Postemergence
Procedure, shortened: as §1

[9] = test system: blackgrass; assay: Test A postemergence herbicide test; format: in vivo, Alopecurus myosuroides
Procedure, shortened: (§2)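 Plants at the one- to two-leaf stage, 2–10 cm tall, grown in loam/sand pots, received postemergence sprays of the test chemicals. After about 10 days in the greenhouse, injury was scored visually against untreated controls on a 0–100 scale (0 none, 100 complete control).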

[10] = test system: galium; assay: Test A postemergence herbicide test; format: in vivo, Galium aparine
Procedure, shortened: as §2

[11] = test system: rice; assay: Test B flooded paddy test; format: in vivo, Oryza sativa; settings: 500 g ai/ha, Flood; scale of 0 to 100 where 0 is no effect and 100 is complete control
Procedure, shortened: (§3)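 Scored visually 0–100 (0 no effect, 100 complete control) versus controls after 13 to 15 greenhouse days. Treatment: compound added to paddy water kept 3 cm above soil, on 2-leaf-stage plants.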

[12] = test system: sedge, umbrella; assay: Test B flooded paddy test; format: in vivo, Cyperus difformis; settings: 500 g ai/ha, Flood; scale of 0 to 100 where 0 is no effect and 100 is complete control
Procedure, shortened: as §3

[13] = test system: ducksalad; assay: Test B flooded paddy test; format: in vivo, Heteranthera limosa; settings: 500 g ai/ha, Flood; scale of 0 to 100 where 0 is no effect and 100 is complete control
Procedure, shortened: as §3

[14] = test system: barnyardgrass; assay: Test B flooded paddy test; format: in vivo, Echinochloa crus-galli; settings: 500 g ai/ha, Flood; scale of 0 to 100 where 0 is no effect and 100 is complete control
Procedure, shortened: as §3

[15] = Postemergence, 125 g ai/ha, 0 to 100 scale, 0 is no effect, 100 is complete control
[16] = Postemergence, 500 g ai/ha, 0 to 100 scale (0 no effect, 100 complete control)
[17] = Preemergence, 125 g ai/ha, 0 to 100 scale where 0 is no effect and 100 is complete control
[18] = preemergence, 500 g ai/ha, 0 to 100 scale, 0 is no effect and 100 is complete control
[19] = Postemergence, 125 g ai/ha, visual rating on 0 to 100 scale (0 no effect, 100 complete control), approx. 10 days
[20] = 500 g ai/ha, 0 to 100 scale (0 no effect, 100 complete control)
[21] = 125 g ai/ha, 0 to 100 scale, 0 is no effect, 100 is complete control
[22] = 125 g ai/ha, visual rating, 0 to 100 scale, 0 no effect, 100 complete control, approximately 10 days, preemergence

SMILES	Plant response rating, Barnyardgrass [1, 15]	Plant response rating, Barnyardgrass [1, 18]	Plant response rating, Kochia [2, 15]	Plant response rating, Kochia [2, 18]	Plant response rating, Ragweed [3, 18]	Plant response rating, Ryegrass, Italian [4, 18]	Plant response rating, Foxtail, Giant [5, 15]	Plant response rating, Foxtail, Giant [5, 18]	Plant response rating, Pigweed [6, 18]	Plant response rating, Corn [8, 21]	Plant response rating, Blackgrass [9, 21]	Plant response rating, Galium [10, 21]	Plant response rating, Rice [11]	Plant response rating, Sedge, Umbrella [12]	Plant response rating, Ducksalad [13]	Plant response rating, Barnyardgrass [14]	Plant response rating, Barnyardgrass [1, 22]	Barnyardgrass plant response rating (0 to 100 scale, 0 is no effect, 100 is complete control) ([1]; Postemergence, 500 g ai/ha)	Plant response rating, Kochia [2, 22]	Kochia plant response rating (0 to 100 scale, 0 is no effect, 100 is complete control) ([2]; Postemergence, 500 g ai/ha)	also measured
O=C1NCC(c2cc3ccccc3o2)C1C(=O)Nc1ccccc1F (racemic) [Compound 281]	40	70	0	0	0	0	0	70	0	0	0	0	0	0	75	20	–	–	–	–	Plant response rating, Barnyardgrass [1, 16]: 70; Plant response rating, Barnyardgrass [1, 17]: 50; Plant response rating, Kochia [2, 16]: 0; Plant response rating, Kochia [2, 17]: 0; Plant response rating, Ragweed [3, 19]: 0; Plant response rating, Ragweed [3, 16]: 0; Plant response rating, Ragweed [3, 17]: 0; Plant response rating, Ryegrass, Italian [4, 19]: 0; Plant response rating, Ryegrass, Italian [4, 16]: 0; Plant response rating, Ryegrass, Italian [4, 17]: 0; Plant response rating, Foxtail, Giant [5, 16]: 0; Plant response rating, Foxtail, Giant [5, 17]: 10; Plant response rating, Pigweed [6, 19]: 0; Plant response rating, Pigweed [6, 16]: 0; Plant response rating, Pigweed [6, 17]: 0; Plant response rating, Wheat ([7]; 125 g ai/ha, visual rating on 0 to 100 scale (0 no effect, 100 complete control), approx. 10 days): 0; Plant response rating, Wheat [7, 20]: 0; Plant response rating, Corn [8, 20]: 0; Plant response rating, Blackgrass [9, 20]: 0; Plant response rating, Galium [10, 20]: 0
CON(C(=O)C1C(=O)NCC1c1ccc(F)c(F)c1)c1cc([N+](=O)[O-])ccc1F (stereo not drawn) [Compound 175]	0	0	0	0	0	0	0	0	0	0	0	0	0	0	30	0	0	0	0	0	Plant response rating, Ragweed [3, 22]: 0; Plant response rating, Ragweed [3, 15]: 0; Ragweed plant response rating (0 to 100 scale, 0 is no effect, 100 is complete control) ([3]; Postemergence, 500 g ai/ha): 0; Plant response rating, Ryegrass, Italian [4, 22]: 0; Plant response rating, Ryegrass, Italian [4, 15]: 0; Ryegrass, Italian plant response rating (0 to 100 scale, 0 is no effect, 100 is complete control) ([4]; Postemergence, 500 g ai/ha): 0; Plant response rating, Foxtail, Giant [5, 22]: 0; Foxtail, Giant plant response rating (0 to 100 scale, 0 is no effect, 100 is complete control) ([5]; Postemergence, 500 g ai/ha): 0; Plant response rating, Pigweed [6, 22]: 0; Plant response rating, Pigweed [6, 15]: 0; Pigweed plant response rating (0 to 100 scale, 0 is no effect, 100 is complete control) ([6]; Postemergence, 500 g ai/ha): 0; Plant response rating, Wheat [7, 21]: 0; Wheat plant response rating (0 to 100 scale, 0 is no effect, 100 is complete control) ([7]; 500 g ai/ha): 0; Corn plant response rating (0 to 100 scale, 0 is no effect, 100 is complete control) ([8]; 500 g ai/ha): 0; Blackgrass plant response rating (0 to 100 scale, 0 is no effect, 100 is complete control) ([9]; 500 g ai/ha): 0; Galium plant response rating (0 to 100 scale, 0 is no effect, 100 is complete control) ([10]; 500 g ai/ha): 0
O=C1NCC(c2ccc(Cl)cc2)C1C(=O)Nc1ccccc1F (stereo not drawn) [Compound 217]	70	90	20	70	50	60	80	90	40	20	20	30	0	0	100	40	70	90	30	70	Plant response rating, Ragweed [3, 22]: 0; Plant response rating, Ragweed [3, 15]: 0; Ragweed plant response rating (0 to 100 scale, 0 is no effect, 100 is complete control) ([3]; Postemergence, 500 g ai/ha): 30; Plant response rating, Ryegrass, Italian [4, 22]: 40; Plant response rating, Ryegrass, Italian [4, 15]: 0; Ryegrass, Italian plant response rating (0 to 100 scale, 0 is no effect, 100 is complete control) ([4]; Postemergence, 500 g ai/ha): 30; Plant response rating, Foxtail, Giant [5, 22]: 90; Foxtail, Giant plant response rating (0 to 100 scale, 0 is no effect, 100 is complete control) ([5]; Postemergence, 500 g ai/ha): 90; Plant response rating, Pigweed [6, 22]: 20; Plant response rating, Pigweed [6, 15]: 0; Pigweed plant response rating (0 to 100 scale, 0 is no effect, 100 is complete control) ([6]; Postemergence, 500 g ai/ha): 0; Plant response rating, Wheat [7, 21]: 20; Wheat plant response rating (0 to 100 scale, 0 is no effect, 100 is complete control) ([7]; 500 g ai/ha): 30; Corn plant response rating (0 to 100 scale, 0 is no effect, 100 is complete control) ([8]; 500 g ai/ha): 30; Blackgrass plant response rating (0 to 100 scale, 0 is no effect, 100 is complete control) ([9]; 500 g ai/ha): 50; Galium plant response rating (0 to 100 scale, 0 is no effect, 100 is complete control) ([10]; 500 g ai/ha): 50
O=C1NCC(c2ccc(Cl)cc2)C1C(=O)Nc1ccccc1C(F)(F)F (stereo not drawn) [Compound 219]	40	60	0	70	0	0	60	90	0	0	40	30	0	0	100	40	30	50	10	10	Plant response rating, Ragweed [3, 22]: 0; Plant response rating, Ragweed [3, 15]: 0; Ragweed plant response rating (0 to 100 scale, 0 is no effect, 100 is complete control) ([3]; Postemergence, 500 g ai/ha): 0; Plant response rating, Ryegrass, Italian [4, 22]: 0; Plant response rating, Ryegrass, Italian [4, 15]: 0; Ryegrass, Italian plant response rating (0 to 100 scale, 0 is no effect, 100 is complete control) ([4]; Postemergence, 500 g ai/ha): 0; Plant response rating, Foxtail, Giant [5, 22]: 90; Foxtail, Giant plant response rating (0 to 100 scale, 0 is no effect, 100 is complete control) ([5]; Postemergence, 500 g ai/ha): 80; Plant response rating, Pigweed [6, 22]: 0; Plant response rating, Pigweed [6, 15]: 0; Pigweed plant response rating (0 to 100 scale, 0 is no effect, 100 is complete control) ([6]; Postemergence, 500 g ai/ha): 0; Plant response rating, Wheat [7, 21]: 0; Wheat plant response rating (0 to 100 scale, 0 is no effect, 100 is complete control) ([7]; 500 g ai/ha): 0; Corn plant response rating (0 to 100 scale, 0 is no effect, 100 is complete control) ([8]; 500 g ai/ha): 0; Blackgrass plant response rating (0 to 100 scale, 0 is no effect, 100 is complete control) ([9]; 500 g ai/ha): 50; Galium plant response rating (0 to 100 scale, 0 is no effect, 100 is complete control) ([10]; 500 g ai/ha): 60
